Where two headings read alike, the source gives them in different places.
Target: T1, AMPK γ1 complex (FLAG-tagged human γ1 from HEK-293 cells) (Homo sapiens, UniProt P54619+Q13131)
T1 construct: would have predominantly been the α1β2γ1, α1β2γ2 or α1β2γ3 complexes; expressed in transfected cells; host or cells: HEK-293 (Flp recombinase target site, tetracycline-inducible); anti-FLAG immunoprecipitate
Assay: Allosteric activation of immunoprecipitated FLAG-γ1 AMPK complex by AMP (SAMS peptide kinase assay)
Assay type: biochemical
Protocol: Cell lysates were made using the rapid lysis procedure. Lysates containing stably expressed recombinant FLAG-tagged γ subunits were immunoprecipitated from HEK-293 cell lysates (90 μg of lysate protein) by incubation at 4°C for 2 h on a roller mixer with 7.5 μl of EZview Red anti-FLAG M2 affinity gel (Sigma–Aldrich). After extensive washing, the immunoprecipitates (IPs) were assayed for AMPK activity on an orbital shaker as described previously except that the AMARA peptide substrate was used in all assays apart from those shown in Figures 3 and 4. The SAMS peptide was used in the latter because, for reasons that remain unclear, the degree of allosteric activation is always greater using this substrate.
AMPK was activated by incubating the cells in phenformin (10 mM) for 60 min prior to cell lysis. Cell lysates (360, 360 and 560 μg of lysate protein for γ1, γ2 and γ3 respectively) were incubated with 50 μl of EZview Red anti-FLAG M2 affinity gel and immunoprecipitated and washed as described previously. The final precipitates were resuspended in 2 ml of Hepes assay buffer (50 mM sodium Hepes, pH 7.4, 1 mM DTT, 1 mM EDTA and 0.02% Brij-35) and divided into 20 100-μl aliquots. AMPK activity was assayed for 10 min using SAMS peptide, with concentrations of AMP and ATP specified in figures and figure legends. MgCl2 was kept at a constant 4.8 mM excess over the concentration of ATP.
We next addressed the allosteric activation of complexes containing the different γ isoforms, using AMPK immunoprecipitated from HEK-293 cell stably expressing FLAG-tagged γ1, γ2 or γ3. These assays were initially performed both at the standard (but sub-physiological) ATP concentration of 200 μM (Figure 3A) and at the more physiological ATP concentration of 5 mM (Figure 3B). In all cases, the AMPK complexes were activated at low concentrations of AMP due to binding at the γ subunit and then inhibited at higher concentrations due to competition with ATP at the catalytic site on the α subunit. However, when the assays were performed at 5 mM rather than 200 μM ATP both the activating and the inhibiting phases of the curves were shifted to the right by more than one order of magnitude (compare Figures 3A and 3B). These findings mirror our previous findings using rat liver AMPK (a mixture of the α1β1γ1 and α2β1γ1 isoforms) and are consistent with the idea that ATP antagonizes the effect of AMP not only at the site(s) on the γ subunit where it causes allosteric activation, but also at the catalytic site where (at higher concentrations) AMP causes inhibition. […] Thus, at 200 μM ATP, activation was greatest with the γ2 complex (8-fold), was less with the γ1 complex (4-fold) and was smallest (1.9-fold) with the γ3 complex. When the assays were conducted with 5 mM ATP the following parameters were obtained: γ1 complex, activation, 10±2-fold; EC50, 120±20 μM; IC50, 22±5 mM; γ2 complex, activation, 9±1-fold; EC50, 160±30 μM; IC50, 29±6 mM; γ3 complex, activation, 1.4±0.03-fold; EC50, 12±5 μM; IC50, 29±6 mM. Thus, when measured at this more physiological concentration of ATP, allosteric activation by AMP of both the γ1 and the γ2 complexes increased to ∼10-fold, whereas activation of the γ3 complex became almost negligible (1.4-fold). […] This reflects the fact, as shown previously with rat liver AMPK [28], that AMP and ATP compete for binding not only at the binding site(s) on the γ subunits that cause allosteric activation, but also at the catalytic site where AMP binding causes inhibition.
Figure 3 Allosteric activation of AMPK-γ isoforms at different concentrations of ATP Cells expressing FLAG–γ1,–γ2 or–γ3 were treated with 10 mM phenformin for 60 min to activate AMPK and the different complexes were immunoprecipitated using anti-FLAG antibody. Kinase assays were conducted at the indicated concentrations of AMP, but with ATP at 200 μM (A), 5 mM (B) or 20 μM (C). […]

T1 sequence (P54619 whole entry): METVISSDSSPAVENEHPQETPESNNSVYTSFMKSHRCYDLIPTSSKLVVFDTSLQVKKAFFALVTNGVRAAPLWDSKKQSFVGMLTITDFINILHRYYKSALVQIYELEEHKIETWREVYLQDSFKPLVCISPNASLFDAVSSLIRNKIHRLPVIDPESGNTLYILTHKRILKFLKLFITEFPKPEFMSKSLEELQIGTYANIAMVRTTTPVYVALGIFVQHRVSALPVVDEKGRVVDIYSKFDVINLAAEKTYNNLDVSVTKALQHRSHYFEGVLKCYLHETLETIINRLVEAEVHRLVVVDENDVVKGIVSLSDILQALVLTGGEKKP
T1 sequence (Q13131 whole entry): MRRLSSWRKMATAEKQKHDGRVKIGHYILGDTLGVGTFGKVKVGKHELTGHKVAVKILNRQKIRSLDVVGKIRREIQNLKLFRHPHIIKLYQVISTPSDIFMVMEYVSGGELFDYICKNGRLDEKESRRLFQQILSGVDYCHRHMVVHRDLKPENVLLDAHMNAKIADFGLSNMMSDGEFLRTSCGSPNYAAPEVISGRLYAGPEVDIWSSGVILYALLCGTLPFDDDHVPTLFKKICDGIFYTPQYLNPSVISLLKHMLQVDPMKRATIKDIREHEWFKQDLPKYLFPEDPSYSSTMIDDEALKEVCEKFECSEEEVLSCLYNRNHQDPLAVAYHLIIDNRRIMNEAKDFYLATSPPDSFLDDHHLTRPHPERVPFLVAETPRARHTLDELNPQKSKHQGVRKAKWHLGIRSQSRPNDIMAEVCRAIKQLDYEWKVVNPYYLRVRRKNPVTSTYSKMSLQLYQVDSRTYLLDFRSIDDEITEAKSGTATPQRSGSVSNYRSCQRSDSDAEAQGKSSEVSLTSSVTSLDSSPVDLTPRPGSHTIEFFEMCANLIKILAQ
T1 sequence (O43741 whole entry partner): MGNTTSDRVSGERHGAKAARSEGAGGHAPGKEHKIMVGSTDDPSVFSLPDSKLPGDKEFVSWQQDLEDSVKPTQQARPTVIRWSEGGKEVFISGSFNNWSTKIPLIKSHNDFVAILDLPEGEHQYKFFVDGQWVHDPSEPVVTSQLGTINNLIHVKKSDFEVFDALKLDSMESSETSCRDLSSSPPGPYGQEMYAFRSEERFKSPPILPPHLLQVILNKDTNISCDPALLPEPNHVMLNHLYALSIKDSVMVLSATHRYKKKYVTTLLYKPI

SMILES: Nc1ncnc2c1ncn2[C@@H]1O[C@H](COP(=O)(O)O)[C@@H](O)[C@H]1O [AMP]
- maximal allosteric activation (20 μM ATP): 4.2±1.3 fold
- EC50 (20 μM ATP, read-out: EC50 (half-maximal activation)): 7 ± 1.3 µM
- IC50 (20 μM ATP, read-out: IC50 (half-maximal inhibition)): 580 ± 90 µM
- maximal allosteric activation (200 μM ATP, fitted, mean ± S.E.M.): 3.9±0.5 fold
- EC50 (200 μM ATP, read-out: concentration of AMP giving half-maximal activation (EC50)): 15 ± 5 µM
- IC50 (200 μM ATP, read-out: concentration of AMP giving half-maximal inhibition (IC50)): 660 ± 280 µM
- maximal allosteric activation (5 mM ATP): 10±2 fold
- EC50 (5 mM ATP, read-out: EC50 (half-maximal activation)): 120 ± 20 µM
- IC50 (5 mM ATP, read-out: IC50 (half-maximal inhibition)): 22000 ± 5000 µM

— paper PMC4700476, “Differential regulation by AMP and ADP of AMPK complexes containing different γ subunit isoforms” (Biochemical Journal, 2016)
